Patent publication US20040266748A1, “Photosensitizing carbamate derivatives” (priority 2001, published 2004)

Legend:
[1] = system: subcutaneous chondrosarcoma tumors; assay: Chondrosarcoma tumor growth delay after PDT; assay type: in vivo, Sprague-Dawley rats; settings: rats; drug dose 2.0 μmol/kg; light dose 125 J/cm2; optimal conditions, 24 hrs post drug administration
Description: The carbamate compounds were formulated in egg yolk phosphatidyl choline (EYP) and phosphate buffered saline (PBS) (pH 7.4). These were sterilized by filtration through a 0.2-micron nylon filter and determined to be stable for at least several weeks following formulation by HPLC. Five Sprague-Dawley rats with subcutaneous chondrosarcoma tumors in the flank of a certain volume (150-250 mm^3) were injected intravenously with various drugs at various doses. Three hours after the injection the tumors were exposed to 664-nm light at light doses of 125 J/cm^2 or 200 J/cm^2. The end point of the study was the observation of tumor regrowth (averaged over the animals) following the treatment.
Table 2 illustrates the results for the best drug and light doses that were tested in the above system and are compared with the well known photosensitizer SnET2 under optimal conditions (24 hrs post drug administration).

normal skin = assay: Normal skin clearance (skin response) of photosensitizers in irradiated hairless rats; assay type: in vivo; settings: drug dose 0.5 μmol/Kg, light dose 150 mW/cm^2/125 J at activation wavelength, time point post injection
From the text: Ester and amide cleavage appear to be the major metabolic routes. As stated previously, one of the inventors' surprising and unexpected biological observations was that the carbamate analogs produce limited skin phototoxicity. Table 1 outlines the normal skin clearance of several carbamate photosensitizers as determined by irradiating hairless rats at the activation wavelength of the photosensitizer at 150 mW/cm2/125 J at different time points post injection. As can be clearly seen, carbamate analogs elicit skin responses at very early time points (1-6 hrs) and not past 6 hrs. […] Examples in Table (1) include compounds (26) and (Chl) and (37) and (35). In these cases the hydroxylated parent tetrapyrroles (Chl) and (35), at drug doses of 0.5 μmol/Kg, elicit maximal normal skin responses at 24 and 48 hrs, respectively. By comparison, their carbamate analogs (26) and (37), at drug doses of 1.0 μmol/Kg and 1.5 μmol/Kg, respectively, elicit maximal skin responses at 6 hrs only. Clearly, if ester metabolism of the carbamate back to the parent hydroxylated macrocycle was rapid in blood plasma one would expect skin responses similar to parent hydroxylated macrocycle. This is not the case. It is known by the present inventors and others that metabolism of the propionic acid methyl ester functionality is generally slow in rat and human blood plasma (10-20% metabolism at 24 hrs).

Compound | Days (regrowth) [1] [days] | Skin Response (normal skin) [h]
CCOC(=O)C1=Cc2c3nc(cc4nc(cc5[n-]c(cc6[n-]c2c(C)c6CC)c(C)c5CC)C(C)=C4CC)[C@@H](C)[C@]13CC.[Cl-].[Cl-].[Sn] (racemic) [SnET2, Tin Ethyletiopurpurin] | 13 | –
diethanolsulfonylamide zinc octaethylbenzochlorin [(35)] | – | 48
